Assay results: patent publication US20190225985A1, “Enhancing Bacillus Thuringiensis CRY Insecticidal Activity With a Chaperone” (Universidad Nacional Autónoma de México, priority 2016, published 2019)
Read-outs that look alike come from different tables or passages of the source.

How the values were obtained:
[1] = tested on: Plutella xylostella larvae; type: in vivo; details: for effect of Hsp90 on toxicity: protoxin at about 10% mortality, increasing Hsp90, FIG. 1
Experimental: The hsp90 and hsp70 genes from the lepidopteran insect Plutella xylostella and the GroEL gene from Alcaligenes faecalis were cloned into an expression vector for production in E. coli cells. P. xylostella is a pest of cruciferous crops worldwide, is susceptible to Cry1A toxins and has evolved resistance to Cry1Ac and Cry1Ab in field conditions^18. To determine the effect of Hsp90, Hsp70 or GroEL on Cry1Ab and Cry1Ac toxicity, bioassays were performed against P. xylostella larvae using a protoxin concentration that would produce around 10% mortality in the presence of increasing amounts of Hsp90, Hsp70 or GroEL.
Bioassays were performed with 24 third instar larvae of P. xylostella using 24 wells plates. Larval diet was surface contaminated with different concentrations of Cry1A protoxin plus Hsp90 or Hsp70 or protoxin alone without any chaperone. The samples containing protoxin and Hsp90 were previously incubated for 30 min at 37° C. in Hsp90 buffer (1 mM Mg, 1 mMATP, in PBS1X). Each experiment was performed in triplicate (72 larvae per treatment). Mortality was assessed after 7 days. The statistical calculations (mean and standard deviation) and graphics were performed using the Microsoft Excel Program. Negative control diet was surface contaminated with the highest Hsp90 concentration without Cry1A protoxin to test the possible toxic effect of the protein or the buffer itself.
In the case where the LC50 was calculated, increasing concentrations of protoxin plus Hsp90 (in the protein relation indicated in the table) was used to surface contaminate diet in 24-well plates. These experiments were performed in triplicate. Mortality was assessed after 7 days and the effective dose was calculated using Probit analysis (Polo-PC LeOra Software).

[2] = tested on: Hsp90; test: ELISA binding assay of Hsp90 to Cry toxins; parameters: species or system Plutella xylostella; details: for binding of Hsp90 to toxin (ELISA): coated protoxin, serial dilutions of Hsp90, FIG. 4A-E
Experimental: (§1) The binding of Hsp90 or Hsp70 to Cry1Ab and Cry1AbMod protoxins was analyzed by ELISA binding assays. […] More specifically, 50 μl of 40 nM of each protoxin in binding buffer (100 mM carbonate pH 9.5) was used to coat ELISA 96 well plates. ELISA plates were incubated overnight at 4° C. After removing the protoxin solution, the plate was blocked with blocking-buffer (1% BSA in PBS 1X) for 1 hr at room temperature. […] The plate was washed three times with washing buffer (PBS 1X) and then 50 μl of a 1/10,000 dilution of anti-polyHistidine-Peroxidase conjugate (Sigma-Aldrich) was added to each well and incubated for 1 hr at 30° C. The reaction was developed with 50 μl of ortophenylenediamine in a substrate buffer (100 mM K3PO4; pH 5) in a final concentration of 1 mg/ml and […] of peroxide oxide. The reaction was stopped by adding 25 μl of HCl, 6N. The plates were read on microtiter plate reader at OD 490 nm.
(§2) Data represent means of 8 wells and each experiment was repeated two times. The statistical calculations (mean and standard deviation) and graphics were performed using the Microsoft Excel Program.

[3] = tested on: Hsp70; test: ELISA binding assay of Hsp70 to Cry toxins; parameters: species or system Plutella xylostella; details: coated protoxin, different concentrations of Hsp70, FIG. 5
Experimental: as §1, §2

[4] = tested on: Plutella xylostella larvae; details: soluble protoxin; taken from reference 16; cited from earlier work
[5] = tested on: M. sexta brush border membrane vesicles (BBMV); test: Oligomerization of Cry1Ab with brush border membrane vesicles in the presence of Hsp90, Western blot; type: biochemical
Experimental: Oligomerization of Cry1Ab. Brush border membrane vesicles (BBMV) were prepared using M. sexta midgut tissues from third instar larvae by the magnesium precipitation method without protease inhibitors^21 and suspended in 50 mM Na2CO3, pH 9, and stored at −70° C. until used. The BBMV protein concentrations were determined with the Lowry DC protein assay (BioRad, Hercules, Calif.) using bovine serum albumin as a standard. Fifteen μg or 30 μg of Hsp90 were incubated with 1 μg Cry1Ab toxin or protoxin in the presence of Hsp90 buffer. Control samples contained Cry1Ab proteins without Hsp90. Cry1Ab oligomerization was analyzed after incubation of 1 μg of Cry1Ab toxin or protoxin with 10 μg of BBMV protein for 1 h at 37° C. in a total volume of […] alkaline buffer, pH 10.5. BBMV were recovered by a 30 min centrifugation at 60,000 rpm at 4° C. The pellet was washed once with 100 μl of alkaline buffer by centrifugation, and suspended in 60 μl of the same buffer. Laemmli sample buffer 4X was added and the sample was incubated three min at 50° C. Samples were separated in 8% SDS-PAGE, electro transferred to PVDF membrane and Cry1Ab proteins were detected by Westernblot as described above.

[6] = excess of 500 μg per well of Hsp90

Chain of Hsp90 (as listed by the source): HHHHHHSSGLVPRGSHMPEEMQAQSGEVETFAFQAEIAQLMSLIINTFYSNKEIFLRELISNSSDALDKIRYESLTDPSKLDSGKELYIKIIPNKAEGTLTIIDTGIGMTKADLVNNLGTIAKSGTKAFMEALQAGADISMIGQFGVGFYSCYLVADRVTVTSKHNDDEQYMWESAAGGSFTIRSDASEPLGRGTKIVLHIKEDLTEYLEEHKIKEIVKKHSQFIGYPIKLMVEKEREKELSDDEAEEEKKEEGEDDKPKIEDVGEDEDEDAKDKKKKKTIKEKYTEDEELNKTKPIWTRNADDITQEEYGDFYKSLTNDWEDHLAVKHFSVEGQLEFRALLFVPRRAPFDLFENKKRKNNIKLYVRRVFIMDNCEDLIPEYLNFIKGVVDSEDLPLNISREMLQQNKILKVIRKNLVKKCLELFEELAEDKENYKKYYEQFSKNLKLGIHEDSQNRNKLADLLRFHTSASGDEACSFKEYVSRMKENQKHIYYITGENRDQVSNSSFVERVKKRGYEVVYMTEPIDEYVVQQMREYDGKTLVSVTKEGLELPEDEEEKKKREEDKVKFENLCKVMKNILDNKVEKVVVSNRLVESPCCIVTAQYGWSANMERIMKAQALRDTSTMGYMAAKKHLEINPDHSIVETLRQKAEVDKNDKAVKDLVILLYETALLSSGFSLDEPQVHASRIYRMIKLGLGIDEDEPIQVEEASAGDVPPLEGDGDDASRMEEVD
Chain of Hsp70 (as listed by the source): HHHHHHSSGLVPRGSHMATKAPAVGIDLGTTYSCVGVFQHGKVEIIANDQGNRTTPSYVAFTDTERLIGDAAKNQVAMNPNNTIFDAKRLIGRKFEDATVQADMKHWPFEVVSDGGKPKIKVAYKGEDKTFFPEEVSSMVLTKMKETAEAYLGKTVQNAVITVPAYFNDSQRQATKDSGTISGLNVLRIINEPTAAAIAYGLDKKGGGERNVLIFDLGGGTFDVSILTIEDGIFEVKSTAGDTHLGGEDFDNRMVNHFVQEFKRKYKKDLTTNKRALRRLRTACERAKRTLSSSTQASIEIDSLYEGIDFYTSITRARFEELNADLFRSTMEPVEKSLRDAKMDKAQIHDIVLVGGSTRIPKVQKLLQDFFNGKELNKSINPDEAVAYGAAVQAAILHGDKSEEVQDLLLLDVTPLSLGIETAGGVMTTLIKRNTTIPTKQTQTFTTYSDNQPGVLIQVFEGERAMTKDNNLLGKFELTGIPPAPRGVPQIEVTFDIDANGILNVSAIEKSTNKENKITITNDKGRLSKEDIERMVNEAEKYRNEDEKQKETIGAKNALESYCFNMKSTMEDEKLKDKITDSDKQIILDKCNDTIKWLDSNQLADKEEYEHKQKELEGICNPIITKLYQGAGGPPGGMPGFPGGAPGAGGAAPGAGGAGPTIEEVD

Row | Substance | mortality ([1]; 100 ng per well of Hsp70) [%] | mortality ([1]; 200 ng per well of Hsp90) [%] | mortality ([1]; GroEL 100 ng per well) [%] | mortality ([1]; excess of 200 μg per well of GroEL) [%] | mortality ([1]; excess of 200 μg per well of Hsp70) [%] | mortality [1, 6] [%] | effect of GroEL on toxicity ([1]; increasing GroEL, FIG. 3) | effect of Hsp70 on toxicity ([1]; increasing Hsp70, FIG. 2) | effect of Hsp90 on toxicity [1] | binding of Hsp90 to Cry1Ac ([2]; 100 nM Hsp90, absence of ATP (FIG. 4F lane 2)) | binding of Hsp90 to toxin (ELISA) [2] | binding of Hsp70 to toxin (ELISA) [3] | LC50 [4] [ng/well] | yield of the 250 kDa Cry1Ab oligomer ([5]; from Cry1Ab protoxin) | yield of the 250 kDa Cry1Ab oligomer ([5]; from Cry1Ab toxin)
1 | Cry1Ac | 80 | 80 | 80 | 100 | 100 | 100 | enhanced in concentration dependent manner | enhanced in an Hsp70 concentration dependent manner | enhanced in an Hsp90 concentration dependent manner | significantly reduced | bound | bound | 0.71 |  | 
2 | Cry1Ab |  | 80 |  |  |  | 100 |  |  | enhanced in an Hsp90 concentration dependent manner |  | bound | bound | 4.69 | significantly enhanced | significantly enhanced
